Test results from publication PMC6915728 (Nature Communications, 2019).
Read-outs that look alike come from different tables or passages of the source.

Assays:
[1] = system: E. coli BW25113 overexpression strains (ASKA plasmids); experiment: Minimum inhibitory concentration (MIC), serial broth dilution, single-gene overexpression strains vs empty-vector control; format: cell-based, Escherichia coli; details: for Average relative change in MIC: mlaD overexpression strain relative to control (wild-type+empty vector), 3 replicates each, from optical density values of serial dilution plates, AMP in µg ml-1; for Relative MIC: broth dilution, MS medium, 100 µM IPTG, 30 °C, 20-24 h, OD600, 3 replicates
Method in brief: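 E. coli overexpression strains grown in MS medium with chloramphenicol, induced with 100 µM IPTG for 1 h at 30 °C, then about half-million cells inoculated into 12-step AMP dilutions (typically 1.2-fold steps). OD600 read after 20–24 h at 30 °C with shaking; triplicate strains compared with empty-vector control.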

E. coli BW25113 ΔmlaD = experiment: MIC, serial broth dilution, mlaD knockout strain vs wild type; format: cell-based, Escherichia coli
Method: What could be the mechanism behind the antagonistic action of this pathway on membrane- versus intracellular-targeting AMPs? Since MlaD is part of a protein complex, it may lead to a loss-of-function effect upon overexpression[41],[42]. To test this, we asked whether overexpression and deletion of mlaD cause similar changes in susceptibility to a representative set of membrane- and intracellular-targeting AMPs.
Minimum inhibitory concentrations (MIC) were determined with a standard serial broth dilution technique with a minor modification. Specifically, instead of a two-fold dilution series, smaller AMP concentration steps were used (typically 1.2-fold) for two reasons. […] Second, gene overexpressions caused typically only small changes in the MICs of AMPs and therefore higher resolution was required. The protocol was as follows. From a stock solution of an AMP, 12-steps serial dilution was prepared in fresh MS medium in 96-well microtiter plates. Each AMP was represented in 11 different concentrations (3 wells per AMP concentration per strain). Three wells contained only medium to check the growth in the absence of AMP. After overnight growth in MS medium supplemented with chloramphenicol, bacterial strains were diluted 20-fold into fresh MS medium and grown until the cell density reached OD600 ~1. Cells were induced by 100 µM of IPTG and incubated for 1 h at 30 °C with continuous shaking at 300 rpm. Following incubation, approximately half-million cells were inoculated into the wells of the 96-well microtiter plate with a 96‐pin replicator. We used three independent replicates for each strain and the corresponding control. Two rows in the 96-well plate contained only MS medium in order to obtain the background OD value of the medium. Plates were incubated at 30 °C with continuous shaking at 300 rpm. After 20–24 h of incubation, OD600 values were measured in a microplate reader (Biotek Synergy 2).
A mlaD knockout strain of E. coli BW25113 carrying a kanamycin resistance cassette in the position of the gene was selected from the KEIO collection. The resistance marker was removed using plasmid-borne (pFT-A) expression of FLP recombinase leading to excision of the kanamycin resistance cassette. Cassette excision was verified by a polymerase chain reaction using the primers mlaD_del_ver_Fw (5′- […]) and mlaD_del_ver_Rev (5′- […]).
Supplementary Figure 13. […] The bacterial susceptibility of the mutant to AMPs was tested by MIC determination. Growth is shown relative to growth in the absence of the corresponding AMP. The blue line represents the mlaD knockout strain and the orange line represents the control strain (wild-type E. coli BW25113). Error bars indicate the standard errors based on three biological replicates. Source data are provided in the Source Data file.

bacterial membrane = details: literature mining; ref superscript numbers in the cell, listed in Supplementary Data 7 sheet References; cited from earlier work
Excerpt: Supplement 41467_2019_13618_MOESM10_ESM.xlsx, sheet "AMP details" | column: Pore formation

[2] = system: E. coli gene overexpression; details: cited from earlier work
Excerpt: Supplement 41467_2019_13618_MOESM1_ESM.docx, table 1: Supplementary Table 1. Collected examples of E. coli gene overexpression from the literature as a confirmation of our chemical-genetic screen results. | column: Overexpression phenotype

[3] = overexpression strain hyfA, MIC of overexpression strain / MIC of empty-plasmid control
[4] = overexpression strain mlaC, MIC of overexpression strain / MIC of empty-plasmid control
[5] = overexpression strain mlaD, MIC of the overexpression strain / MIC of the control strain (wild-type carrying the empty plasmid)
[6] = overexpression strain murA, MIC of overexpression strain / MIC of empty-plasmid control
[7] = overexpression strain narY, MIC of overexpression strain / MIC of empty-plasmid control
[8] = overexpression strain rpoH, MIC of overexpression strain / MIC of empty-plasmid control
[9] = overexpression strain uhpC, MIC of overexpression strain / MIC of empty-plasmid control
[10] = overexpression strain yhbJ, MIC of overexpression strain / MIC of empty-plasmid control
[11] = overexpression strain ytjB, MIC of overexpression strain / MIC of empty-plasmid control
[12] = mlaD deletion strain relative to control (E. coli BW25113), 3 replicates each, from optical density values of serial dilution plates, AMP in µg ml-1
[13] = overexpression strain gadW, MIC of overexpression strain / MIC of empty-plasmid control
[14] = overexpression strain mzrA, MIC of overexpression strain / MIC of empty-plasmid control
[15] = overexpression strain nikB, MIC of overexpression strain / MIC of empty-plasmid control
[16] = overexpression strain cvpA, MIC of overexpression strain / MIC of empty-plasmid control
[17] = overexpression strain mhpA, MIC of overexpression strain / MIC of empty-plasmid control
[18] = gene ptrB overexpressed, ref 2 (Mattiuzzo et al. 2014)
[19] = overexpression strain lptB, MIC of overexpression strain / MIC of empty-plasmid control
[20] = gene marA overexpressed, ref 3 (Warner & Levy 2010)
[21] = overexpression strain yiaJ, MIC of overexpression strain / MIC of empty-plasmid control
[22] = mlaD deletion strain vs control E. coli BW25113, average of 3 replicates

Sequence	Average relative change in MIC [1]	Relative MIC [1, 3]	Relative MIC [1, 4]	Relative MIC [1, 5]	Relative MIC [1, 6]	Relative MIC [1, 8]	Relative MIC [1, 9]	Relative MIC [1, 11]	Average relative change in MIC (E. coli BW25113 ΔmlaD; [12])	Pore formation (whether AMP makes pores in the bacterial membrane) (bacterial membrane)	Relative MIC [1, 13]	Relative MIC [1, 14]	Relative MIC [1, 15]	Relative MIC [1, 19]	further results
GLRKRLRKFRNKIKEKLKKIGQKIQGFVPKLAPRTDY [CAP18, antimicrobial peptide, source rabbit; disrupts cell membrane; cluster C3]	1.86	0.72	2.1	2.42	>2.25	>2.25	1.66	1.72	2.25	Yes35	–	–	–	–	Relative MIC [1, 7]: 0.76; Relative MIC [1, 10]: >2.25; Overexpression phenotype, Literature ([2]; gene waaY overexpressed, ref 10 (Lázár et al. 2018)): Sensitivity^10
RWCFRVCYRGICYRKCR [TPII, Tachyplesin II, antimicrobial peptide from Japanese horseshoe crab; disrupts cell membrane; cluster C1]	1.47	–	1	1.47	–	–	–	–	1.35	Yes1	1	1.27	0.8	–	–
RRRPRPPYLPRPRPPPFFPPRLPPRIPPGFPPRFPPRFP [PR39, PR-39, cathelicidin, source pig; cluster C4]	–	–	–	–	–	–	1.25	–	–	No9	1.32	0.8	0.8	–	Relative MIC [1, 16]: 0.8; Relative MIC [1, 17]: 0.78; Overexpression phenotype, Literature [2, 18]: Resistance^2; Overexpression phenotype, Literature ([2]; gene sbmA overexpressed, ref 9 (Pranting et al. 2008)): Sensitivity^9
LLGDFFRKSKEKIGKEFKRIVQRIKDFLRNLVPRTES [LL37, LL-37 human cathelicidin, human host-defense peptide; disrupts cell membrane; cluster C2]	2.42	0.74	1.43	2.5	–	–	–	1.2	2.25	Yes22	0.79	–	–	1.2	Relative MIC ([1]; overexpression strain yijE, MIC of overexpression strain / MIC of empty-plasmid control): 1.2; Overexpression phenotype, Literature [2, 20]: Resistance^3; Overexpression phenotype, Literature ([2]; gene ompT overexpressed, ref 4 (Stumpe et al. 1998)): Resistance^4
RFRPPIRRPPIRPPFYPPFRPPIRPPIFPPIRPPFRPPLGPFP [BAC5, Bactenecin 5, antimicrobial peptide from bovine neutrophils; cluster C4]	0.74	–	1	0.74	0.8	0.8	–	–	–	–	1.3	–	–	0.67	Relative MIC [1, 17]: 0.79; Relative MIC [1, 10]: 0.8; Relative MIC [1, 21]: 0.7; Average relative change in MIC (E. coli BW25113 ΔmlaD; [22]): 0.67; Overexpression phenotype, Literature [2, 18]: Resistance^2
KTKKKFLKKT [PXB, Polymyxin B, from Bacillus polymyxa, purchased from Sigma-Aldrich; disrupts cell membrane; cluster C1]	–	–	–	–	–	–	–	–	–	Yes2	0.7	0.66	1	0.7	Overexpression phenotype, Literature ([2]; gene arnT overexpressed, ref 5 (Trent et al. 2001)): Resistance^5; Overexpression phenotype, Literature ([2]; gene eptA overexpressed, ref 7 (Olaitan et al. 2014)): Resistance^7; Overexpression phenotype, Literature [2, 20]: Resistance^3; Overexpression phenotype, Literature ([2]; gene pmrD overexpressed, ref 8 (Roland et al. 1994)): Resistance^8
ILPWKWPWWPWRR [IND, Indolicidin, antimicrobial peptide from bovine neutrophils; cluster C3]	0.82	>1.2	–	0.78	0.8	0.64	0.8	0.8	–	Yes39	–	0.62	0.76	–	Relative MIC [1, 16]: 0.76; Relative MIC ([1]; overexpression strain ptsN, MIC of overexpression strain / MIC of empty-plasmid control): 0.76; Relative MIC [1, 21]: 0.8; Average relative change in MIC (E. coli BW25113 ΔmlaD; [22]): 0.71
GIGKFLKKAKKFGKAFVKILKK [PEX, Pexiganan, synthetic Magainin derivative; disrupts cell membrane; cluster C2]	1.71	0.7	1.85	1.85	1.44	1.44	–	–	1.58	Yes13	0.7	1	–	1.3	Relative MIC [1, 7]: 0.8
